# Data: patent US20240174744A1, “METHODS OF TREATMENT USING PROTEIN BINDERS TO IRHOM2 EPITOPES” (SCIRHOM GMBH, priority 2021, published 2024)
# Assays:
# [1] = system: PMA-induced release of HB-EGF from U-937 cells; assay: ELISA-based HB-EGF release assay, PMA-stimulated U-937 cells; format: cell-based; conditions: Homo sapiens, murine (m) and chimeric (ch) antibodies 3 μg/ml, Batimastat 10 μM, PMA 25 ng/ml, 6 hours
# Experimental: Complementary to Example 29 described above, ELISA-based HB-EGF release assays were performed to verify the inhibitory effects of the antibodies of the present disclosure on PMA-induced release of endogenous HB-EGF from human U-937 cells.
# The production of the recombinant antibody material that was used in this example is identical to the one described in Example 25. The ELISA-based HB-EGF release assay that was used in this example is identical with the one described in Example 30, with the only difference, that U-937 (European Collection of Authenticated Cell Cultures, UK) cells were used instead of THP-1 (American Type Culture Collection, USA) cells.
# [2] = system: PMA-induced release of IL-6R from PBMCs from patients suffering from rheumatoid arthritis; assay: ELISA-based IL-6R release assay, PBMCs from RA-patients; format: cell-based; conditions: Homo sapiens, PBMC; chimeric antibodies (CHO) 1 μg/ml; Batimastat 10 μM; PMA 25 ng/ml, 24 hours
# Experimental: In contrast to Example 34, where the inhibitory effects of the antibodies of the present disclosure on PMA-induced release of endogenous IL-6R from primary human material obtained from healthy donors using peripheral blood mononuclear cells (PBMCs) were tested, this analysis was conducted to analyze the inhibitory effects of the antibodies of the present disclosure on PMA-induced release of endogenous IL-6R from primary human material obtained from patients suffering from rheumatoid arthritis (RA-patients).
# In brief, on day 1, Nunc black MaxiSorp® 96-well plates (Thermo Fisher Scientific, USA) were coated overnight with 100 μl per well of mouse anti-human IL-6R capture antibody (provided as part of the DuoSet ELISA kit) at 4 μg/ml TBS at 4° C. […] Using an infinite M1000 (Tecan Group, Switzerland) microplate reader, the fluorescence of each well was collected at an excitation wavelength of 435 nm and an emission wavelength of 555 nm.
smiles,measurement,setting,value
CNC(=O)[C@H](Cc1ccccc1)NC(=O)[C@H](CC(C)C)[C@H](CSc1cccs1)C(=O)NO [Batimastat],inhibition at 10 µM,[1],100%
same,inhibition at 10 µM,[2],104%
